From paper PMC7997574, “Lead Optimization of Benzoxazolone Carboxamides as Orally Bioavailable and CNS Penetrant Acid Ceramidase Inhibitors” (Journal of Medicinal Chemistry, 2020)

How the values were obtained:
[1] = In vitro plasma stability study; type: in vitro ADME; conditions: mouse plasma; read-out: m-plasma t1/2
Outline: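 Compound at 2 μM final incubated in mouse plasma at 37 °C for up to 120 min, sampled at 0–120 min and quenched in cold MeCN with internal standard. Remaining compound quantified by LC/MS/MS; t1/2 fitted from response vs time; mean of ≥2 experiments.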

[2] = biological target: T1, acid sphingomyelinase (ASM) (Homo sapiens, UniProt P17405); test: In vitro hASM assay; type: biochemical; conditions: 1 and 10 μM
T1 construct: 1.3 nM purified human full-length ASM enzyme (purified in house); made in house
T1 sequence (P17405 47-631): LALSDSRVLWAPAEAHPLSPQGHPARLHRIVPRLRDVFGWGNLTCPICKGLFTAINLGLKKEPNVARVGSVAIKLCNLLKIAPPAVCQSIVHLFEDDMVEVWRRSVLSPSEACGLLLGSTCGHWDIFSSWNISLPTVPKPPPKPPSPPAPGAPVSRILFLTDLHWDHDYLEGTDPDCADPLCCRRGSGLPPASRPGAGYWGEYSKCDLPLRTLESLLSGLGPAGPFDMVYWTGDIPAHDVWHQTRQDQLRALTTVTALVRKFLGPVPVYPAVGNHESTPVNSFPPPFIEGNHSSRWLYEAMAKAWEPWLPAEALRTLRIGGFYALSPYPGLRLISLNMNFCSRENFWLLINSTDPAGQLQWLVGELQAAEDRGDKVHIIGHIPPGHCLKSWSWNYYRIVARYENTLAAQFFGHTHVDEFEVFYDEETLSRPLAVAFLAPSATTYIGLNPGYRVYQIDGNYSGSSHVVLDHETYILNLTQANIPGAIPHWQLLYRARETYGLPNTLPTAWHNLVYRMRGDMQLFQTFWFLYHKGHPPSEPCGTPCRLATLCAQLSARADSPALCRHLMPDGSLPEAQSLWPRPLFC
Description: hASM activity measurement was conducted using the fluorogenic substrate 6-hexadecanoylamino-4-methylumbelliferylphosphorylcholine (HMU-PC, Toronto Research Chemicals) at 0.5 μM and 1.3 nM purified human full-length ASM enzyme (purified in house) in a buffer containing 50 mM citrate, 150 mM NaCl, 5 mM ZnCl2, and 0.43 mM Triton X-100 at pH 4.7 in a final volume of 50 μL. The reaction mixtures were incubated for 45 min at rt and stopped by the addition of 150 μL of 1 M glycine at pH 12.5. The formation of the fluorescent product was monitored by a plate reader at excitation/emission wavelengths of 385/450 nm. The average hASM activity was calculated from two independent experiments, each performed in two technical replicates.

[3] = biological target: T2, AC (Homo sapiens, UniProt Q13510); test: Fluorogenic hAC assay on hAC-enriched lysate of HEK293 cells; type: biochemical; parameters: expressed in transfected cells; conditions: hAC expressed in HEK-293 cells; read-out: hAC IC50 (μM)±SD
T2 sequence (Q13510 22-395): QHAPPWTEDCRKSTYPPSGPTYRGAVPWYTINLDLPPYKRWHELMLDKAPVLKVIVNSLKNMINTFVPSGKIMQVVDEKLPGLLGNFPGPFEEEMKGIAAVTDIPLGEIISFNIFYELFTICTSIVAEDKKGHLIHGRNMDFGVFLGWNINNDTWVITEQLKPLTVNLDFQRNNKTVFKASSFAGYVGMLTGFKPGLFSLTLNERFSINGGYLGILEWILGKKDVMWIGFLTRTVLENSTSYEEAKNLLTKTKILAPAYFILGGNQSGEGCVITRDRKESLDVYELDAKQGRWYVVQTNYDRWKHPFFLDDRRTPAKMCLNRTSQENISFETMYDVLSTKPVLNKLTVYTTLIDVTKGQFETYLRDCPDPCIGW
Outline: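 Lysosome-enriched lysate (2 μg protein) from HEK293 cells stably expressing hAC, in 25 mM NaOAc pH 4.5. Pre-incubated 10 min with compound, then incubated 3 h at 37 °C with fluorogenic substrate Rbm14–12 (5 μM final, ~KM). Fluorescence (355/460 nm) read after NaIO4 development; IC50 by nonlinear regression, mean of ≥3 experiments.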

For CC(C)CNC(=O)n1c(=O)oc2cc(C3CCN(C)CC3)ccc21 [22m, N-Isobutyl-6-(1-methyl-4-piperidyl)-2-oxo-1,3-benzoxazole-3-carboxamide], the half-life at 2 µM [1] was 1.33 h, the half-life at 2 μM [1] was > 1 h and the “effect on activity of ASM” value [2] was “no effect”. For the same molecule, the IC50 [3] was 0.166 ± 0.089 µM.
